What was measured:
[1] = tested on: intra-amniotic LPS-induced preterm labor and birth; experiment: Murine model of intra-amniotic LPS-induced preterm labor and birth; format: in vivo, mouse
Procedure: FIGS. 2A-2F. Nitazoxanide prevents preterm delivery and improves neonatal mortality in vivo. (FIG. 2A) Schematic illustration depicting the administration of nitazoxanide (marketed under the commercial name Alinia) and LPS in the murine model of preterm birth. (FIG. 2B) Gestational length of mice was obtained using video-monitoring until delivery (n=6-8 animals). (FIG. 2C) Neonatal mortality was determined by calculating the number of dead pups over total litter size (n=6-8 animals). […] No pups from LPS-injected dams survived beyond week 0 of birth. (FIG. 2E) MNRR1 transcript levels were measured in mouse decidual tissue (17.5 dpc). Actin was used as a housekeeping gene to normalize expression (n=4 animals for all except PBS+N, where n=3). (FIG. 2F) Equal amounts of whole placental lysates were separated on an SDS-PAGE gel and probed for MNRR1 levels. Actin was used as a loading control. Gel is representative of data obtained from 2 animals. Keyfor FIGS. 2B, 2C, and 2E: PBS, phosphate buffered saline injection; LPS, lipopolysaccharide injection; PBS+N, PBS injection with oral gavage of nitazoxanide; LPS+N, LPS injection with oral gavage of nitazoxanide. Significance: *, p<0.05; **, p<0.01.
Animal model of intra-amniotic LPS-induced preterm labor and birth: Nitazoxanide (Alinia®; ROMARK, Tampa, FL, USA) was dissolved in sterile injectable water. The nitazoxanide volume was mouse weight dependent (100 μL of nitazoxanide solution at 200 mg/kg was administered for every mouse weight of 10 g). […] Dams were anesthetized on 16.5 dpc by inhalation of 2-3% (Fluriso™ (Isoflurane, USP), Vetone Boise, ID, USA) and 1-2 L/min of oxygen in an induction chamber. Anesthesia was maintained with a mixture of 1.5-2% isoflurane and 1.5-2 L/min of oxygen. Dams were positioned on a heating pad and stabilized with adhesive tape. Fur removal from the abdomen and thorax was performed by applying Nair cream (Church & Dwight Co., Inc., Ewing, NJ, USA) to those areas. Body temperature was detected with a rectal probe (VisualSonics Inc., Toronto, Ontario, Canada) and maintained in the range of 37±1° C. Respiratory and heart rates were monitored by electrodes embedded in the heating pad. An ultrasound probe was fixed and mobilized with a mechanical holder, and the transducer was slowly moved toward the abdomen. […] Following injection, dams were monitored by using a video camera with infrared light (Sony) until delivery. Video monitoring allowed for determination of gestational length, which was calculated from the presence of the vaginal plug (0.5 dpc) until the observation of the first pup in the cage bedding. […] The rates of neonatal mortality at birth were calculated as the number of pups found dead among the total litter size. […]

[2] = tested on: mtDNA harboring the m.3243A>G mutation; experiment: Heteroplasmy by Haelll digestion of mtDNA fragment, DW7 cells; format: cell-based, human; conditions: 10 μM, 144 h
Procedure: FIGS. 7A-7E: MNRR1 activation by tizoxanide enhances mtDNA biogenesis and mitophagy to shift heteroplasmy in MELAS cells. FIG. 7A: Oxygen consumption measured from MELAS cybrid cells treated with vehicle (DMSO) or tizoxanide (10 μM) for 48 h (n=4 biological replicates, error bars represent SE). FIG. 7B: Haelll restriction enzyme digestion of a PCR-amplified fragment of mtDNA harboring the m.3243A>G mutation from DW7 cells treated with vehicle (DMSO) or tizoxanide (10 μM) for 144 h. […] FIG. 7C: Genes identified using qPCR of MELAS cybrid cells stably overexpressing EV or MNRR1. FIG. 7D: MtDNA levels are shown relative to nuclear DNA (nDNA) (GAPDH) (n=5 biological replicates, error bars represent SE). FIG. 7E: Equal amounts of MELAS cybrid cell lysates, treated with vehicle (DMSO) or tizoxanide (10 μM) for 48 h, were separated on an SDS-PAGE gel and probed for PGC1a, PINK1, LC3 A/B, MNRR1, and Tubulin. FIG. 7F: Equal numbers of MELAS cells were treated as in FIG. 7E, separated on an SDS-PAGE gel, and probed for phospho-ubiquitin (S65) levels. Tubulin was probed as a loading control. In all figures, * indicates p<0.05, ** indicates p<0.005.
Restriction Enzyme Digestion: DNA was analyzed for the MELAS mutation as described previously. […]

[3] = 200 mg/kg oral gavage, intra-amniotic LPS 16.5 dpc

SMILES	neonatal mortality at birth ([1]; 200 mg/kg oral gavage, LPS-injected dams, compared to controls)	LPS-induced preterm birth (delivery <18.5 dpc) [1, 3]	gestational age [1, 3]	neonates surviving up to 3 weeks ([1]; neonates born to LPS-injected dams treated with nitazoxanide)	increase in proportion of WT mtDNA [2]
CC(=O)Oc1ccccc1C(=O)Nc1ncc([N+](=O)[O-])s1 [nitazoxanide, Nitazoxanide]	significantly reduced	preventing LPS-induced preterm birth (delivery <18.5 days post coitum (dpc)) in all pregnant dams	extended	almost one-half	
O=C(Nc1ncc([N+](=O)[O-])s1)c1ccccc1O [tizoxanide, Tizoxanide]					about 14%
